Measured values taken from patent US9913832B2, “Accelerating thrombus resolution through augmentation of p53 activity” (priority 2009, dated 2018).
Entries after “also recorded” stand apart in the source; their conditions may differ.

What was measured:
normal (wildtype) mice = test: mouse model of thrombus resolution (vena caval ligation), normal mice; type: in vivo; conditions: 25 mg/kg body weight by daily injection, versus saline, FIG. 8
Source text: In an effort to develop pharmacological and molecular therapy to accelerate thrombus resolution, the function of the p53 gene was studied in an in vivo model of thrombus resolution. In this mouse model (vena caval ligation) the thrombus shrinks between day 4 and day 12 by about 50% as defined by change in thrombus weight. It was noted that the expression of the p53 protein is increased in thrombus resolution.
In order to determine whether augmentation of normal p53 function could accelerate thombus resolution wildtype mice were treated with the p53 activator quinacrine (25 mg/kg body weight, by daily injection). Quinacrine is known to increase p53 levels by stabilizing the p53 protein and preventing its normal degradation inside cells.
(§1) The well-established rodent model of thrombus resolution was used to define a role for the p53 gene in this process. In this model, a mouse is anesthetized, the abdomen is opened with standard sterile surgical technique and the vena cava (the largest abdominal vein) is ligated in the abdomen with a suture immediately below the level of the renal veins.
The weight of the thrombus decreases with time, and this change in weight reflects the thrombus resolution process in this model. […]

[1] = tested on: mice lacking the p53 gene; test: mouse model of thrombus resolution (vena caval ligation), mice lacking the p53 gene; type: in vivo; conditions: quinacrine versus control, FIG. 9, last two columns
Source text: To determine whether the beneficial effect on thrombus resolution of quinacrine was due to activation of the p53 gene and not some other unknown effect of quinacrine on thrombus resolution the quinacrine experiment was repeated in mice that lack p53 (FIG. 2).
as §1
To determine if pharmacologic activation of the p53 gene beyond its usual activation by thrombus resolution might accelerate thrombus resolution, normal mice were treated with the p53 activator quinacrine (25 mg/kg body weight, by daily injection) or saline as a control, and then subjected to vena caval ligation as described above. […] To determine if this effect of quinacrine was actually due to p53 activation, this experiment was repeated in animals lacking the p53 gene.

experimental thrombi = conditions: literature studies of exogenous therapy on formed or established thrombus; cited from earlier work

| Molecule | thrombus resolution as determined by thrombus weight on day 12 (normal (wildtype) mice) | thrombus resolution / thrombus size at day 12 [1] | thrombus resolution in experimental animal models (experimental thrombi) |
| --- | --- | --- | --- |
| CCN(CC)CCCC(C)Nc1c2ccc(Cl)cc2nc2ccc(OC)cc12 (stereo not shown) [quinacrine] | improved thrombus resolution; also recorded: decreased thrombus weight | absent; also recorded: no difference in thrombus size | – |
| MCP-1: cytokine macrophage chemotactic factor | – | – | does improve experimental thrombus resolution |
| low molecular weight heparin | – | – | no improvement in the resolution of an established thrombus |
